“Also recorded” adds a separate entry of the source.
Columns and labels:
[1] = Brightness and photophysics of Mango fluorophore complexes; format: physicochemical
Source text: FIG. 2|RNA Mango I, II, III and IV core sequences and their properties. (a) Color coded alignment of RNA Mango I, II, III and IV. G residues in yellow are protected from DMS cleavage (data from panel d) when folded in the presence of fluorophore. Quadruplex stacks and their associated propeller sequences are numbered 1 through 4. The GAAA isolation motif of Mango I, together with two adenines essential for binding, are shown in green and red respectively. Purple shading represents a flanking stem region common for all four Mango aptamers. Schematic: A tertiary structure schematic of Mango I, showing tier 1, 2 and 3 of its quadruplex structure (T1, T2 and T3) and color-coded as in (a). […] Bottom: Top view of the Mango I core (PBD ID: 5V3F), showing the T3 tier of the quadruplex and relevant propeller residues, color coding matches the schematic and panel a. […] KD values are shown next to each titration. (c) Same as for panel b but using 20 nM TO3-Biotin. Data for panels b and c have been normalized such that Mango I has a maximum fluorescence of 1. Error bars are standard deviation of three replicates. (d) DMS chemical protection patterns for the four Mango aptamers. 3′ end-labelled RNA (terminal ^32pCp shown as a black asterisk) was subjected to DMS chemical modification followed by reduction by NaBH4 and aniline cleavage as described in the methods. […] Legend: T1—denatured T1 ladder; OH—partial alkaline hydrolysis ladder; (−) DMS—denatured reaction with ddH2O added in place of DMS; 80° C.
FIG. 13|Photophysics: excitation/emission. (a) Excitation (dark curve) and emission (light curve) spectra of each Mango. All Mangos have Δex max=510 nm and Δem max=535 nm. Color-coding is as follows: Black—Mango I, Blue—Mango II, Green—Mango III, Red—Mango IV.
Fluorescence data was gathered using a Varian Cary Eclipse Spectrophotometer unless otherwise stated. […] Fluorescence was measured at the maximum excitation and emission wavelengths of each complex (FIG. 13).

[2] = Temperature dependent fluorescence and UV melting; format: physicochemical
Procedure: FIG. 11|Temperature-dependent fluorescent and UV absorbance spectroscopy of new Mango variants. Line plots of temperature-dependent spectroscopy for Mango I (data obtained from previous work)^1, Mango II, Mango III, and Mango IV. […] Starting at 90° C., temperature was ramped down at a rate of 1° C./min to 20° C. (darker shade) and returned to 90° C. at a rate of 1° C./min (lighter shade).
Temperature dependence measurements were started at 90° C. decreasing at a rate of 1° C./min until 20° C., then returned at 1° C./min until 90° C. was reached. […] Temperature dependence of fluorescence and absorbance were measured using a Varian Cary Eclipse Fluorescence Spectrophotometer at excitation and emission peaks and a Varian Cary 100 Bio UV-visible spectrophotometer monitoring at 260 nm.

[3] = Fluorescence enhancement of TO1-PE; format: biochemical; conditions: ligand TO1-PE
Procedure: (§1) The bandwidth for all measurements was 1.5 nm for all experiments. Measurements were performed in a 0.2 cm path length cuvette in a background of 20 mM MOPS pH 7.0, 150 mM KCl, 10 μM EDTA. Fluorescence readings were taken in the absence of RNA at a ligand concentration of 0.82 μM. A concentrated, annealed stock of RNA was then added to the cuvette resulting in a final concentration of 2 μM RNA and allowed to equilibrate for 1 minute prior to taking an emission reading. Fluorescence enhancement was determined by dividing the fluorescence signal of ligand in the presence of RNA by the fluorescence signal in the absence of RNA corrected for the background of the instrument.

[4] = Fluorescence titration, binding affinity for TO1-ME; conditions: ligand TO1-ME
Source text: We determined the affinity and fluorescence enhancement of four compounds: TO1-OAc (TO1-acetate), TO1-ME (TO1-methylester), TO1-PA (TO1-propanylamide), TO1-PE (TO1-pentenoylester) (FIG. 42, Table 8 & 9). Binding affinity and fluorescence enhancement of TO1-OAc is drastically diminished, and nearly identical between the wild-type and A22U mutant. […] Further extension of the linker stabilizes the binding pocket by stacking on T3 but becomes sterically hindered by a bulky purine in position 22. The A22U mutation would limit steric clashes while preventing misfolding of the G-quadruplex core. Thus, the improved properties of the Mango-II A22U mutant may arise from improved packing of the linker of the fluorophore with an RNA with a homogeneous or predominant conformation.
Fluorescence readings were recorded using a Varian Cary Eclipse Spectrophotometer set to measure at the maximum excitation and emission wavelengths of the Mango II aptamer dye complex. Fluorescence titrations were performed in Mango selection buffer (WB: 140 mM KCl, 1 mM MgCl2, 10 mM NaH2PO4 pH 7.2, 0.05% Tween-20).

[5] = Formaldehyde resistance assay; format: physicochemical; conditions: in vitro, TO1-Biotin
Procedure: FIG. 15|Effect of formaldehyde on Mango fluorescence. […] In (b) RNA is incubated with the corresponding amounts of formaldehyde first for one hour, then TO1-Biotin is added. Data for each panel is normalized to RFU at the 0% formaldehyde, 0 min point.
RNA Mango aptamers were incubated with TO1-Biotin in WB buffer for at least one hour until equilibrium fluorescence was reached. […] Fluorescence was measured as a kinetic run at a rate of 2 readings per minute using a Varian Cary Eclipse Fluorescence Spectrophotometer, ex/em=510±2.5/535±5 nm.

[6] = Fluorescence enhancement of TO1-Biotin; format: biochemical; conditions: ligand TO1-B; 0.82 μM ligand, 2 μM RNA
Procedure: as §1

[7] = Salt dependence of Mango/TO1-Biotin fluorescence: Mg2+ titration; conditions: in the presence of potassium; Mg2+ 256 mM
Procedure: (§2) FIG. 10|Salt dependence of new Mango variants. Dependence of fluorescence of each Mango for (a) K^+, (b) Na^+ in place of K^+, and (c) Mg^2+ ions in a buffer containing 140 mM K^+. […] 10 mM Tris buffer (pH 7.2) was used in place of phosphate of the WB buffer to avoid monovalent counter ions. Color-coding is as follows: Black—Mango I, Blue—Mango II, Green—Mango III, Orange—Mango IV. Hill coefficients are fitted to dark points. Points in lighter shade have been excluded from the fit. Error bars are standard deviations of three replicates.

[8] = Fluorescence enhancement of TO3-Biotin; format: biochemical; conditions: ligand TO3-B; 0.82 μM ligand, 2 μM RNA
Procedure: as §1

[9] = Salt dependence of Mango/TO1-Biotin fluorescence: K+ titration; format: binding; conditions: 25 nM RNA, 50 nM TO1-Biotin, 10 mM Tris pH 7.2
Procedure: as §2

[10] = Salt dependence of Mango/TO1-Biotin fluorescence: Na+ in place of K+; format: binding
Procedure: as §2

Mango-II: minimal construct engineered from isolate R2-1; SEQ ID NO: 6902 GCGUACGAAGGAGAGGAGAGGAAGAGGAGAGUACGC (chemistry not given here)
quantum yield of the TO1-Biotin complex [1]: 0.21
brightness of the TO1-Biotin bound complex ([1]; TO1-Biotin complex): 17,000 M^−1cm^−1
brighter than Mango-I ([1]; TO1-Biotin, FIG. 2b): 1.5 fold
thermostability [2]: more thermostable than Mango-I
FIE (fluorescence enhancement) [3]: 783 ± 13
Kd [4]: 2.41 ± 0.54 nM
resistance to formaldehyde [5]: substantially resistant to formaldehyde; also recorded: remarkably formaldehyde resistant
FIE (fluorescence enhancement) [6]: 1303 ± 20
effect of high levels of Mg^2+ on fluorescence [7]: significantly resistant
FIE (fluorescence enhancement) [8]: 61 ± 2
Kd [9]: 39 ± 10 mM
Hill Coefficients K^+ ([9]; * estimated from initial rise of fluorescence): 1.4 ± 0.2
fluorescence in the presence of sodium ions [10]: did not fluoresce appreciably
Hill Coefficients Na^+ ([10]; Na+ in place of K+, 25 nM RNA, 50 nM TO1-Biotin): 0.8 ± 0.1

B1: Mango II - A22U: Mango-II point mutant; SEQ ID NO: 6903 / 6905 (nucleic acid)
chain 1: GCGUACGAAGGAGAGGAGAGGUAGAGGAGAGUACGC
chain 2: GGCACGUACGAAGGAGAGGAGAGGUAGAGGAGAGUACGUGC
modifications: chemistry not given here
FIE (fluorescence enhancement) [3]: 825 ± 14
Kd [4]: 4.81 ± 1.02 nM
FIE (fluorescence enhancement) [6]: 1543 ± 24
FIE (fluorescence enhancement) [8]: 46 ± 3

From patent publication US11434490B2, “Fluorogen-binding RNA aptamers” (CENTRE NATIONAL DE LA RECHERCHE SCIENTIFIQUE, priority 2017, dated 2022)
